Test results from patent US12492182B2, “Hydroxytriazine compounds and pharmaceutical use thereof” (Japan Tobacco Inc., priority 2015, dated 2025).
Where two headings read alike, the source gives them in different places.

Key:
human mPGES-1 = biological target: T1, human mPGES-1 (Homo sapiens, UniProt O14684); test: Evaluation of human mPGES-1 enzyme inhibitory activity (HTRF measurement of PGE2); assay type: biochemical; details: IC50 value; microsome fraction of CHO-S cells expressing human mPGES-1, PGH2 substrate, PGE2 by HTRF; read-out: humans mPGES-1 enzyme inhibitory activity
T1 construct: made in house; host or cells: Chinese hamster ovary-derived cells (FreeStyle CHO-S), transient transfection of pcDNA3.1(+)/human mPGES-1; microsome fraction
T1 sequence (O14684 1-152): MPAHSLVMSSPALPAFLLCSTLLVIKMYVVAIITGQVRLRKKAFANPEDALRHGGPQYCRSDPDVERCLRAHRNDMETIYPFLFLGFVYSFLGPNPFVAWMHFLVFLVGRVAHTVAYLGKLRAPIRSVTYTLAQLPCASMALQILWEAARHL
In short: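 Enzyme source was a microsome fraction from CHO-S cells transfected with human mPGES-1, diluted to 5 μg/mL protein in reduced GSH (12.5 mmol/L KPB), preincubated with compound for 10 min at room temperature with 2% final DMSO. Reaction started with PGH2 and run 45 seconds at room temperature. PGE2 measured by HTRF.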

A549 cell = test: Evaluation of PGE2 production inhibitory action using A549 cell (IL-1β stimulated); assay type: cell-based, human; details: for IC50: recombinant human IL-1β stimulation, read-out: cell PGE2 production inhibitory activity (IC50 value)
In short: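 A549 cells (human lung cancer) in F-12K with 2% FBS were preincubated with test article for 30 min, then stimulated with IL-1β (1 ng/mL final) for 18 hr at 37 °C; 0.5% DMSO final. Supernatant PGE2 was measured by HTRF against a standard curve; inhibition is relative to vehicle and unstimulated blank wells.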

| Compound | IC50 (human mPGES-1) | IC50 (A549 cell; Homo sapiens, A549, A549 cell) | inhibition at 0.03 µM (A549 cell; Homo sapiens, A549 cell, IL-1β stimulation, at the highest concentration given (0.03 μM), read-out: cell PGE2 production inhibitory activity (%), printed in parentheses after the > bound) | IC50 (A549 cell; A549 cell) |
| --- | --- | --- | --- | --- |
| CC(C)c1cccc(-c2nc(O)nc(-c3cc(CNC(=O)C(C)(C)C(F)F)ccc3Cl)n2)c1 [Example 77] | 0.8 nM | 44 nM |  |  |
| CCC[C@@H](C)Oc1ccc(-c2nc(O)nc(-c3cc(CNC(=O)C(C)(C)OC)ccc3Cl)n2)cn1 [Example 78] | 1.2 nM | 9.2 nM |  |  |
| CCC[C@@H](C)Oc1ccc(-c2nc(O)nc(-c3cc(CNC(=O)[C@@](C)(OC)C(F)(F)F)ccc3Cl)n2)cn1 [Example 80] | 2.7 nM | 2 nM |  |  |
| CCCCCCOc1ccc(-c2nc(O)nc(-c3cc(CNC(=O)C(CC)(CC)OC)ccc3Cl)n2)cn1 [Example 82] | 7.2 nM | 2.2 nM |  |  |
| CCCCCCOc1ccc(-c2nc(O)nc(-c3cc(CNC(=O)[C@@](C)(OC)C(F)(F)F)ccc3Cl)n2)cn1 [Example 83] | 5 nM | 2.7 nM |  |  |
| CCCCCCOc1ccc(-c2nc(O)nc(-c3cc(CNC(=O)C(C)(C)CF)ccc3Cl)n2)cn1 [Example 84] | 2 nM | 6 nM |  |  |
| CCCCCCOc1ccc(-c2nc(O)nc(-c3cc(CNC(=O)C(C)(C)C(F)F)ccc3Cl)n2)cn1 [Example 85] | 4.9 nM | 3.5 nM |  |  |
| CCC[C@H](C)Oc1ccc(-c2nc(O)nc(-c3cc(CNC(=O)C(C)(C)C(F)(F)F)ccc3Cl)n2)cn1 [Example 86] | 1.8 nM | 2.1 nM |  |  |
| CC(C)(C)c1cc(-c2nc(O)nc(-c3cc(CNC(=O)C(C)(C)C(F)(F)F)ccc3Cl)n2)ccc1Cl [Example 87] | 5.2 nM | 2.9 nM |  |  |
| CC(C)c1cc(-c2nc(O)nc(-c3cc(CNC(=O)C(C)(C(F)(F)F)C(F)(F)F)ccc3Cl)n2)ccc1Cl [Example 88] | 19 nM | 1.6 nM |  |  |
| CC1(c2cccc(-c3nc(O)nc(-c4cc(CNC(=O)C(C)(C(F)(F)F)C(F)(F)F)ccc4Cl)n3)c2)CC1 [Example 89] | 3.7 nM | 2.5 nM |  |  |
| CC(C)c1cccc(-c2nc(O)nc(-c3cc(CNC(=O)C(C)(C(F)(F)F)C(F)(F)F)ccc3Cl)n2)c1 [Example 90] | 2.1 nM | 3.9 nM |  |  |
| CC(C)(C)c1cccc(-c2nc(O)nc(-c3cc(CNC(=O)C(C)(C(F)(F)F)C(F)(F)F)ccc3Cl)n2)c1 [Example 91] | 4.6 nM | 4 nM |  |  |
| CC(C)c1cccc(-c2nc(O)nc(-c3cc(CNC(=O)C4(CF)CCCC4)ccc3Cl)n2)c1 [Example 92] | 0.5 nM | 90 nM |  |  |
| CC(C)(C)c1cccc(-c2nc(O)nc(-c3cc(CNC(=O)C4(CF)CCCC4)ccc3Cl)n2)c1 [Example 93] | 1.3 nM | 30 nM |  |  |
| CC1(c2cccc(-c3nc(O)nc(-c4cc(CNC(=O)C5(CF)CCCC5)ccc4Cl)n3)c2)CC1 [Example 94] | 1 nM | 59 nM |  |  |
| CC(C)c1cc(-c2nc(O)nc(-c3cc(CNC(=O)C4(CF)CCCC4)ccc3Cl)n2)ccc1Cl [Example 95] | 1.9 nM | 17 nM |  |  |
| CC(C)c1cccc(-c2nc(O)nc(-c3cc(CNC(=O)C4(C(F)F)CCCC4)ccc3Cl)n2)c1 [Example 96] | 0.8 nM | 61 nM |  |  |
| CC(C)c1cc(-c2nc(O)nc(-c3cc(CNC(=O)C4(C(F)F)CCCC4)ccc3Cl)n2)ccc1Cl [Example 97] | 3.8 nM | 9 nM |  |  |
| CC(C)c1cccc(-c2nc(O)nc(-c3cc(CNC(=O)C4(CF)CCCCC4)ccc3Cl)n2)c1 [Example 98] | 1.2 nM | 43 nM |  |  |
| CC(C)(C)c1cccc(-c2nc(O)nc(-c3cc(CNC(=O)C4(CF)CCCCC4)ccc3Cl)n2)c1 [Example 99] | 1.7 nM | 11 nM |  |  |
| CC1(c2cccc(-c3nc(O)nc(-c4cc(CNC(=O)C5(CF)CCCCC5)ccc4Cl)n3)c2)CC1 [Example 100] | 0.9 nM | 43 nM |  |  |
| CC(C)c1cc(-c2nc(O)nc(-c3cc(CNC(=O)C4(CF)CCCCC4)ccc3Cl)n2)ccc1Cl [Example 101] | 2.1 nM | 7.9 nM |  |  |
| CCC[C@H](C)Oc1ccc(-c2nc(O)nc(-c3cc(CNC(=O)C(C)(C)OC)ccc3Cl)n2)cn1 [Example 102] | 1.1 nM | 25 nM |  |  |
| CCC[C@H](C)Oc1ccc(-c2nc(O)nc(-c3cc(CNC(=O)C(CC)(CC)OC)ccc3Cl)n2)cn1 [Example 103] | 2.4 nM | 6.5 nM |  |  |
| CCC[C@H](C)Oc1ccc(-c2nc(O)nc(-c3cc(CNC(=O)C(C)(C)CF)ccc3Cl)n2)cn1 [Example 105] | 1.5 nM | 15 nM |  |  |

| Compound | IC50 (human mPGES-1) | IC50 (A549 cell; Homo sapiens, A549, A549 cell) | inhibition at 0.03 µM (A549 cell; Homo sapiens, A549 cell, IL-1β stimulation, at the highest concentration given (0.03 μM), read-out: cell PGE2 production inhibitory activity (%), printed in parentheses after the > bound) | IC50 (A549 cell; A549 cell) |
| --- | --- | --- | --- | --- |
| CCC[C@H](C)Oc1ccc(-c2nc(O)nc(-c3cc(CNC(=O)C4(CF)CCCCC4)ccc3Cl)n2)cn1 [Example 106] | 3.6 nM | 5 nM |  |  |
| CC(C)c1cc(-c2nc(O)nc(-c3cc(CNC(=O)C4(C(F)F)CCCCC4)ccc3Cl)n2)ccc1Cl [Example 108] | 2.4 nM | 2.4 nM |  |  |
| CCC[C@H](C)Oc1ccc(-c2nc(O)nc(-c3cc(CNC(=O)C4(C(F)F)CCCCC4)ccc3Cl)n2)cn1 [Example 109] | 3.2 nM | 1.8 nM |  |  |
| CCC[C@H](C)Oc1ccc(-c2nc(O)nc(-c3cc(CNC(=O)C4(C(F)F)CCCC4)ccc3Cl)n2)cn1 [Example 110] | 3.7 nM | 2.7 nM |  |  |
| CC(C)c1cccc(-c2nc(O)nc(-c3cc(CNC(=O)C4(CF)CCCCCC4)ccc3Cl)n2)c1 [Example 111] | 1.5 nM | 54 nM |  |  |
| CC(C)(C)c1cccc(-c2nc(O)nc(-c3cc(CNC(=O)C4(CF)CCCCCC4)ccc3Cl)n2)c1 [Example 112] | 3.3 nM | 24 nM |  |  |
| CC1(c2cccc(-c3nc(O)nc(-c4cc(CNC(=O)C5(CF)CCCCCC5)ccc4Cl)n3)c2)CC1 [Example 113] | 1.8 nM | 95 nM |  |  |
| CC(C)c1cc(-c2nc(O)nc(-c3cc(CNC(=O)C4(CF)CCCCCC4)ccc3Cl)n2)ccc1Cl [Example 114] | 3.1 nM | 13 nM |  |  |
| CCC(CC)(CF)C(=O)NCc1ccc(Cl)c(-c2nc(O)nc(-c3ccc(Cl)c(C(C)C)c3)n2)c1 [Example 115] | 1.3 nM | 6.6 nM |  |  |
| CCC(CC)(C(=O)NCc1ccc(Cl)c(-c2nc(O)nc(-c3cccc(C(C)C)c3)n2)c1)C(F)F [Example 116] | 1.2 nM | 7.2 nM |  |  |
| CCC(CC)(C(=O)NCc1ccc(Cl)c(-c2nc(O)nc(-c3cccc(C(C)(C)C)c3)n2)c1)C(F)F [Example 117] | 1.6 nM | 4.2 nM |  |  |
| CCC(CC)(C(=O)NCc1ccc(Cl)c(-c2nc(O)nc(-c3cccc(C4(C)CC4)c3)n2)c1)C(F)F [Example 118] | 0.4 nM | 17 nM |  |  |
| CCC(CC)(C(=O)NCc1ccc(Cl)c(-c2nc(O)nc(-c3ccc(Cl)c(C(C)C)c3)n2)c1)C(F)F [Example 119] | 1.8 nM | 3 nM |  |  |
| CC(C)c1cccc(-c2nc(O)nc(-c3cc(CNC(=O)C4(C(F)F)CCCCCC4)ccc3Cl)n2)c1 [Example 120] | 1.8 nM | > 30 nM | 43% |  |
| CC(C)(C)c1cccc(-c2nc(O)nc(-c3cc(CNC(=O)C4(C(F)F)CCCCCC4)ccc3Cl)n2)c1 [Example 121] | 3.3 nM | 7.9 nM |  |  |
| CC1(c2cccc(-c3nc(O)nc(-c4cc(CNC(=O)C5(C(F)F)CCCCCC5)ccc4Cl)n3)c2)CC1 [Example 122] | 1.8 nM | 19 nM |  |  |
| CCC[C@@H](C)Oc1ccc(-c2nc(O)nc(-c3cc(CNC(=O)C(CC)(CC)C(F)F)ccc3Cl)n2)cn1 [Example 123] | 4 nM | 1.5 nM |  |  |
| CCC[C@@H](C)Oc1ccc(-c2nc(O)nc(-c3cc(CNC(=O)C(CC)(CC)CF)ccc3Cl)n2)cn1 [Example 124] | 2.6 nM | 2.5 nM |  |  |
| CCC[C@@H](C)Oc1ccc(-c2nc(O)nc(-c3cc(CNC(=O)C4(C(F)(F)F)CCCC4)ccc3Cl)n2)cn1 [Example 125] | 6 nM | 1.6 nM |  |  |
| CCC[C@@H](C)Oc1ccc(-c2nc(O)nc(-c3cc(CNC(=O)C4(C(F)F)CCCC4)ccc3Cl)n2)cn1 [Example 126] | 3.1 nM | 2.5 nM |  |  |
| CCC[C@@H](C)Oc1ccc(-c2nc(O)nc(-c3cc(CNC(=O)C4(C(F)F)CCCCC4)ccc3Cl)n2)cn1 [Example 127] | 2.4 nM | 0.9 nM |  |  |
| CCC[C@@H](C)Oc1ccc(-c2nc(O)nc(-c3cc(CNC(=O)C4(CF)CCCCC4)ccc3Cl)n2)cn1 [Example 128] | 2.2 nM | 1.3 nM |  |  |
| CCC[C@H](C)Oc1ccc(-c2nc(O)nc(-c3cc(CNC(=O)C(CC)(CC)C(F)F)ccc3Cl)n2)cn1 [Example 130] | 3.8 nM | 1.2 nM |  |  |
| CCC(OC)(C(=O)NCc1ccc(Cl)c(-c2nc(O)nc(-c3cccc(C(C)(C)C)c3)n2)c1)C(F)(F)F (stereo not drawn) [Example 133] | 1.4 nM |  |  | 2.4 nM |
| CCC(OC)(C(=O)NCc1ccc(Cl)c(-c2nc(O)nc(-c3cccc(C(C)(C)C)c3)n2)c1)C(F)(F)F (stereo not drawn) [Example 135] | 2 nM |  |  | 5.4 nM |
| CCC(OC)(C(=O)NCc1ccc(Cl)c(-c2nc(O)nc(-c3cccc(C4(C)CC4)c3)n2)c1)C(F)(F)F (stereo not drawn) [Example 136] | 1.2 nM | 10 nM |  |  |
